Among the test systems are Hs-578T; NCI/ADR-RES; SN12C; A549; PC-3; HCT-116; IGROV-1; COLO 205; MOLT-4; Malme-3M; ACHN; UO-31; OVCAR-5; SF-539; CCRF-CEM; NCI-H23; BT-549; K562; TK-10.
Common to all, as to experiment: NCI anticancer screen, dose series, 48 h

These results are taken from ChEMBL document CHEMBL1201862, “PubChem BioAssay data set” (2004).

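48-hour exposure; five concentrations; linearly interpolated endpoints. Here, GI50 denotes the concentration required for 50% inhibition of growth.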 The source made the active and inactive calls. No stated cut-off is given here; in the data, active = GI50 up to about 1.1 µM and inactive = higher.

On to `Cc1ccc([N+](=O)[O-])cc1S(=O)(=O)Nc1ccc(C2=NOC(c3ccccc3O)C2)cc1` (stereo not given), for which the GI50 in the assay with Hs-578T was 9.98 µM (inactive); in the assay with NCI/ADR-RES, 2.54 µM (inactive); in the assay with SN12C it was 12.3 µM (inactive); in the assay on A549, 4.97 µM (inactive); in the assay on PC-3, 4.74 µM (inactive); in the assay on HCT-116, 4.54 µM (inactive). The GI50 in the assay on IGROV-1 is 7.43 µM (inactive); in the assay on COLO 205, 3.54 µM (inactive); in the assay with MOLT-4, 2.76 µM (inactive); in the assay on Malme-3M it was 3.95 µM (inactive); with ACHN it was 13.1 µM (inactive); in the assay with UO-31, < 0.01 µM (active). The GI50 in the assay on OVCAR-5 was 33.4 µM (inactive); in the assay with SF-539, 4.58 µM (inactive); with CCRF-CEM, 8.93 µM (inactive); with NCI-H23, 10.4 µM (inactive); in the assay on BT-549 it was 6.27 µM (inactive); in the assay on K562 it was 2.25 µM (inactive). The GI50 in the assay on TK-10 was 18.3 µM (inactive).

For `O=c1ccn([C@@H]2C[C@H]2CO)c(=O)[nH]1`, the GI50 in the assay on Hs-578T, in the assay on NCI/ADR-RES, in the assay with SN12C, in the assay with A549, with PC-3 and in the assay on HCT-116 was > 100 µM (inactive) throughout. The GI50 in the assay with IGROV-1, with COLO 205, in the assay on MOLT-4, with Malme-3M, in the assay on ACHN and in the assay with UO-31 was > 100 µM (inactive) in each case. The GI50 in the assay with OVCAR-5, with SF-539, in the assay with CCRF-CEM, in the assay with NCI-H23, in the assay on BT-549 and in the assay with K562 was > 100 µM (inactive) each time. Besides, in the assay with TK-10, the GI50 is > 100 µM (inactive).

In the case of `C=C1CC(COc2ccc3ccc(=O)oc3c2)(c2ccccc2)OC1=O` (stereo not given), the GI50 is 4.03 µM (inactive) in the assay with Hs-578T; 2.48 µM (inactive) in the assay on NCI/ADR-RES; 2.73 µM (inactive) in the assay with SN12C; 10.6 µM (inactive) in the assay with A549; 2.69 µM (inactive) in the assay with PC-3; 0.597 µM (active) in the assay with HCT-116. For the same molecule, the GI50 with IGROV-1 was 1.64 µM (inactive); with COLO 205, 0.625 µM (active); in the assay on MOLT-4, 1.25 µM (inactive); with Malme-3M, 2.33 µM (inactive); with ACHN, 2.01 µM (inactive); with UO-31, 5.19 µM (inactive). The GI50 was 5.87 µM (inactive) in the assay with OVCAR-5; 3.46 µM (inactive) in the assay on SF-539; 0.233 µM (active) in the assay on CCRF-CEM; 0.912 µM (active) in the assay on NCI-H23; 1.54 µM (inactive) in the assay on BT-549; 0.266 µM (active) in the assay on K562. Further, in the assay with TK-10, the GI50 was 1.54 µM (inactive).

As to `CC[C@]12C=CCN3CC[C@@]4(c5cc(Br)c(OC)cc5N(C)[C@H]4[C@@](O)(C(=O)N[C@@H](Cc4ccc(O)cc4)C(=O)OC)[C@@H]1O)[C@@H]32`, the GI50 in the assay with Hs-578T was 20.7 µM (inactive); in the assay on NCI/ADR-RES it was 20.7 µM (inactive); in the assay with SN12C it was 16.5 µM (inactive); in the assay on A549, 25.7 µM (inactive); in the assay on PC-3 it was 39 µM (inactive); in the assay with HCT-116, 34.8 µM (inactive). Besides, the GI50 in the assay on IGROV-1 is 19.5 µM (inactive); with COLO 205, 18.6 µM (inactive); with MOLT-4, 14.2 µM (inactive); in the assay with Malme-3M it was 14.1 µM (inactive); in the assay with ACHN, 27.6 µM (inactive); in the assay with UO-31 it was 27.2 µM (inactive). Further, the GI50 is 45.5 µM (inactive) with OVCAR-5; 19.7 µM (inactive) with SF-539; 21.6 µM (inactive) with CCRF-CEM; 52.4 µM (inactive) with NCI-H23; 20.7 µM (inactive) in the assay on BT-549; 43 µM (inactive) with K562. Moreover, in the assay with TK-10, the GI50 was 22.6 µM (inactive).

Turning to `CCCCCCc1cc2cc(C(=O)Nc3cccc(C(F)(F)F)c3)c(=N)oc2cc1O`, the GI50 in the assay on Hs-578T is 0.998 µM (active); in the assay with NCI/ADR-RES, 2.06 µM (inactive); in the assay on SN12C it was 1.33 µM (inactive); in the assay on A549, 2.06 µM (inactive); with PC-3, 3.34 µM (inactive); in the assay on HCT-116, 1.55 µM (inactive). Besides, the GI50 was 1.19 µM (inactive) in the assay with IGROV-1; 6.64 µM (inactive) in the assay on COLO 205; 0.586 µM (active) with MOLT-4; 1.17 µM (inactive) with Malme-3M; 1.56 µM (inactive) with ACHN; 3.14 µM (inactive) in the assay with UO-31. In addition, the GI50 in the assay on OVCAR-5 was 4.27 µM (inactive); in the assay on SF-539, 1.73 µM (inactive); with CCRF-CEM, 0.933 µM (active); in the assay on NCI-H23, 0.185 µM (active); with BT-549, 1.66 µM (inactive); in the assay on K562, 0.543 µM (active). Besides, the GI50 in the assay with TK-10 was 4.01 µM (inactive).

With `Brc1ccc2c(-c3csc(-c4c[nH]c5ccc(Br)cc45)n3)c[nH]c2c1`, the GI50 in the assay with Hs-578T was 5.78 µM (inactive); in the assay on NCI/ADR-RES it was 4.83 µM (inactive); in the assay on SN12C, 5.92 µM (inactive); in the assay with A549, 4.2 µM (inactive); in the assay on PC-3 it was 4.81 µM (inactive); with HCT-116, 3.64 µM (inactive). Moreover, the GI50 with IGROV-1 was 2.43 µM (inactive); in the assay with COLO 205 it was 2.88 µM (inactive); in the assay on MOLT-4 it was 2.84 µM (inactive); in the assay with Malme-3M it was 5.4 µM (inactive); with ACHN it was 2.96 µM (inactive); in the assay with UO-31, 3.82 µM (inactive). Also, the GI50 was 2.44 µM (inactive) in the assay on OVCAR-5; 3.87 µM (inactive) with SF-539; 3.79 µM (inactive) in the assay on CCRF-CEM; 2.87 µM (inactive) in the assay with NCI-H23; 12.6 µM (inactive) in the assay on BT-549; 3.53 µM (inactive) with K562. The GI50 with TK-10 is 3.94 µM (inactive).

As to `C=C[C@@]1(C)CC(=O)[C@]2(O)[C@@]3(C)[C@@H](O)CCC(C)(C)[C@@H]3[C@H](O)[C@@H](OC(C)=O)[C@@]2(C)O1`, the GI50 was 70.1 µM (inactive) in the assay with Hs-578T; > 100 µM (inactive) in the assay with NCI/ADR-RES; 57.7 µM (inactive) in the assay with SN12C; > 100 µM (inactive) with A549; > 100 µM (inactive) with PC-3; > 100 µM (inactive) in the assay with HCT-116. The GI50 in the assay with IGROV-1 is > 100 µM (inactive); in the assay on COLO 205 it was > 100 µM (inactive); in the assay on MOLT-4 it was 30.2 µM (inactive); with Malme-3M it was > 100 µM (inactive); with ACHN it was > 100 µM (inactive); in the assay with UO-31, 60.4 µM (inactive). The GI50 in the assay on OVCAR-5 was 72.6 µM (inactive); with SF-539, > 100 µM (inactive); in the assay with CCRF-CEM, > 100 µM (inactive); with NCI-H23 it was > 100 µM (inactive); with BT-549 it was > 100 µM (inactive); in the assay on K562, > 100 µM (inactive). Besides, in the assay on TK-10, the GI50 is > 100 µM (inactive).

Turning to `O=C(O)c1c2c(c(O)c3c1CN(C1CCCCC1)CO3)OCN(C1CCCCC1)C2`, the GI50 with Hs-578T was > 100 µM (inactive); in the assay on NCI/ADR-RES, > 100 µM (inactive); in the assay with SN12C, 27.2 µM (inactive); in the assay on A549 it was > 100 µM (inactive); in the assay with PC-3 it was > 100 µM (inactive); with HCT-116, 39.3 µM (inactive). Further, the GI50 in the assay with IGROV-1 was 74.5 µM (inactive); in the assay on COLO 205, > 100 µM (inactive); in the assay with MOLT-4 it was 18.5 µM (inactive); with Malme-3M it was > 100 µM (inactive); in the assay on ACHN it was > 100 µM (inactive); in the assay on UO-31 it was > 100 µM (inactive). Besides, the GI50 with OVCAR-5 was > 100 µM (inactive); in the assay with SF-539, 37 µM (inactive); in the assay with CCRF-CEM it was 10.4 µM (inactive); in the assay on NCI-H23, > 100 µM (inactive); in the assay on BT-549, > 100 µM (inactive); in the assay with K562 it was 31.3 µM (inactive). Further, in the assay with TK-10, the GI50 is > 100 µM (inactive).

Regarding `C(=N\N=C1NCCCCN1)/c1ccc2ccccc2c1`, the GI50 with Hs-578T was 92.9 µM (inactive); in the assay on NCI/ADR-RES, 98.2 µM (inactive); in the assay with SN12C, 39.9 µM (inactive); with A549 it was 50.2 µM (inactive); in the assay on PC-3, 29.6 µM (inactive); in the assay with HCT-116, 33.7 µM (inactive). In addition, the GI50 in the assay on IGROV-1 is 40.9 µM (inactive); in the assay on COLO 205, 15.9 µM (inactive); in the assay with MOLT-4, 23.5 µM (inactive); in the assay on Malme-3M, 16.3 µM (inactive); in the assay with ACHN it was 45.4 µM (inactive); in the assay with UO-31, 36.8 µM (inactive). Also, the GI50 with OVCAR-5 was 25.2 µM (inactive); in the assay on SF-539, 20.4 µM (inactive); in the assay on CCRF-CEM, 33.7 µM (inactive); in the assay with NCI-H23, 76.7 µM (inactive); in the assay on BT-549, 37.2 µM (inactive); in the assay on K562 it was 20.9 µM (inactive). The GI50 with TK-10 was 37.9 µM (inactive).

In the case of `O=c1nc(N2CCNCC2)oc2cc(Cl)oc(=O)c12`, the GI50 with Hs-578T was 1.94 µM (inactive); in the assay with NCI/ADR-RES, 6.47 µM (inactive); with SN12C, 6.11 µM (inactive); in the assay on A549 it was 7.52 µM (inactive); with PC-3, 6.49 µM (inactive); in the assay with HCT-116, 2.43 µM (inactive). The GI50 is 2.7 µM (inactive) in the assay with IGROV-1; 2.9 µM (inactive) with COLO 205; 1.76 µM (inactive) in the assay on MOLT-4; 3.93 µM (inactive) in the assay with Malme-3M; 6.87 µM (inactive) in the assay on ACHN; 7.67 µM (inactive) with UO-31. Besides, the GI50 was 15.5 µM (inactive) with OVCAR-5; 2.25 µM (inactive) in the assay on SF-539; 1.83 µM (inactive) in the assay on CCRF-CEM; 7.24 µM (inactive) in the assay on NCI-H23; 0.716 µM (active) with BT-549; 2.55 µM (inactive) in the assay with K562. In addition, the GI50 with TK-10 is 9.02 µM (inactive).
